In patent US8796328B2, “TRPV1 antagonists” (AbbVie Inc., priority 2012, dated 2014):

Experiments:
[1] = target: T1, human TRPV1 receptor (hTRPV1) (Homo sapiens (Human), UniProt Q8NER1); assay: Acid activation assay (pH 5.0, FLIPR intracellular Ca2+); assay type: cell-based; settings: 37.5 μM compound, percentage of the maximal pH 5.0-induced response remaining; for remaining activity at 37.5 µM: read-out: hTRPV1 H+ (max % remain)
Method: Dulbecco's modified Eagle's medium (DMEM) with 4.5 mg/mL D-glucose, fetal bovine serum, L-glutamine, and 2-morpholinoethanesulfonic acid (MES) were purchased from Sigma-Aldrich Co. (St. Louis, Mo.). Dulbecco's phosphate-buffered saline (DPBS) with Ca^2+, Mg^2+, and 1 mg/mL D-glucose (pH 7.4), Geneticin®, 0.25% trypsin-1 mM EDTA, and penicillin-streptomycin were purchased from Invitrogen Corp. (Carlsbad, Calif.). The FLIPR® Calcium 4 assay kit was purchased from Molecular Devices (Sunnyvale, Calif.).
(§1) The cDNAs for the human TRPV1 receptor (hTRPV1) were isolated by reverse transcriptase-polymerase chain reaction (RT-PCR) from human small intestine poly A+ RNA supplied by Clontech (Palo Alto, Calif.) using primers designed surrounding the initiation and termination codons identical to the published sequences (Hayes et al. Pain 2000, 88, 205-215). The resulting cDNA PCR products were subcloned into pCIneo mammalian expression vector (Promega) and fully sequenced using fluorescent dye-terminator reagents (Prism, Perkin-Elmer Applied Biosystems Division) and a Perkin-Elmer Applied Biosystems Model 373 DNA sequencer or Model 310 genetic analyzer. Expression plasmids encoding the hTRPV1 cDNA were transfected individually into 1321N1 human astrocytoma cells using Lipofectamine®. Forty-eight hours after transfection, the neomycin-resistant cells were selected with growth medium containing 800 μg/mL Geneticin (Gibco BRL). Surviving individual colonies were isolated and screened for TRPV1 receptor activity. Cells expressing recombinant homomeric TRPV1 receptors were maintained at 37° C. in DMEM containing 4 mM L-glutamine, 300 μg/mL G418 (Cal-biochem) and 10% fetal bovine serum under a humidified 5% CO2 atmosphere.
The functional activity of compounds at the TRPV1 receptor was determined by measurement of intracellular Ca^2+ levels ([Ca^2+]i) using the Fluorescence Imaging Plate Reader (FLIPR)^TETRA®. All compounds were tested over a 12-point one-half-log concentration range. Compound stocks, 10 mM, were prepared in DMSO, and diluted serially across a 384-well plate using a Bravo BenchCel workstation (Agilent Technologies, Santa Clara, Calif.).
On the day of the experiment growth medium was removed, and the no-wash FLIPR®Calcium-4 dye (λEX=470-495 nm, λEM=515-575 nm) was added to each well using the Multidrop® dispenser. Cells were incubated for 90-120 minutes in the dark at 25° C. Test compounds were dissolved in DMSO, and plates were prepared using an Agilent Bravo workstation (Agilent Technologies Inc., Santa Clara, Calif.). Compounds were added to the cells 3 minutes prior to the addition of a pH 5.0 solution. Reagents were delivered at a rate of 40 μL/sec, and the final assay volume was 80 μL. Acidic pH solutions were prepared by titration of DPBS/MES with 1 N HCl. The intensity of the fluorescence was captured and digitally transferred to an interfaced PC.

[2] = target: T1, human TRPV1 receptor (hTRPV1); assay: Capsaicin activation assay (FLIPR intracellular Ca2+); assay type: cell-based; settings: inhibition of capsaicin-induced intracellular Ca2+ increase; compounds added 3 minutes prior to capsaicin; read-out: hTRPV1 cap. IC50
Method: Dulbecco's modified Eagle medium (D-MEM) (with 4.5 mg/mL glucose) and fetal bovine serum were obtained from Hyclone Laboratories, Inc. (Logan, Utah). Dulbecco's phosphate-buffered saline (D-PBS) (with 1 mg/mL glucose and 3.6 mg/l Na pyruvate, without phenol red), L-glutamine, hygromycin B, and Lipofectamine® were obtained from Life Technologies (Grand Island, N.Y.). G418 sulfate was obtained from Calbiochem-Novabiochem Corp. (San Diego, Calif.). Capsaicin (8-methyl-N-vanillyl-6-nonenamide) was obtained from Sigma-Aldrich, Co. (St. Louis, Mo.). Fluo-4 AM (N-[4-[6-[(acetyloxy)methoxy]-2,7-difluoro-3-oxo-3H-xanthen-9-yl]-2-[2-[2-[bis[2-[(acetyloxy)methoxy]-2-oxyethyl]amino]-5-methylphenoxy]ethoxy]phenyl]-N-[2-[(acetyloxy)methoxy]-2-oxyethyl]-glycine, (acetyloxy)methyl ester) was purchased from Molecular Probes (Eugene, Oreg.).
as §1, with “D-MEM” for “DMEM”
The functional activity of compounds at the TRPV1 receptor was determined by measurement of intracellular Ca^2+ levels ([Ca^2]i) using the Fluorescence Imaging Plate Reader (FLIPR)^TETRA®. All compounds were tested over a 12-point one-third-log concentration range. Compound stocks, 10 mM, were prepared in DMSO, and diluted serially across a 384-well plate using a Bravo BenchCel workstation (Agilent Technologies, Santa Clara, Calif.). A stock concentration of capsaicin (10 mM) was made in DMSO, and diluted in D-PBS to a final concentration of 200 nM (4×). On the day prior to the experiment, recombinant HEK293 cells that stably express either human or rat TRPV1 (hTRPV1-3) were removed from tissue culture flasks and plated in growth medium into black-walled clear-bottom 384-well Biocoat™ poly-D-lysine assay plates (BD Biosciences, Bedford, Mass.) using a Multidrop® dispenser (ThermoScientific, Waltham, Mass.). On the day of the experiment, growth medium was removed, and the no-wash FLIPR® Calcium-4 dye (λEX=470-495 nm, λEM=515-575 nm; Molecular Devices, Sunnyvale, Calif.) was added to each well using the Multidrop® dispenser. Cells were incubated for 90-120 minutes in the dark at room temperature. Test compounds were added to the cells 3 minutes prior to the addition of 200 nM capsaicin (4×), and the final assay volume was 80 μL. Fluorescence readings were made at 1 to 5 second intervals over the course of the experimental run. The peak increase in relative fluorescence units (minus baseline) was calculated, and expressed as a percentage of the 50 nM capsaicin (control) response. Curve-fits of the data were solved using a four-parameter logistic Hill equation in GraphPad Prism® (GraphPad Software, Inc., San Diego, Calif.), and IC50 values (concentration of the test compounds that inhibits 50% of the intracellular Ca^2+ concentration increase induced by capasin) were calculated.

rats = assay: Rat tail immersion assay (noxious thermosensation, 55° C. water bath); assay type: in vivo; settings: rat, morphine 6 mg/kg i.p. in saline, relative to vehicle
Method: Compounds were tested for their effects on noxious thermosensation using the tail immersion assay. Testing was performed one hour following oral administration of 100 μmol/kg of the compound in 10% ethanol/20% Tween-80/70% PEG-400 (2 mL/kg). Mophine (6 mg/kg) was administered interperitoneally (i.p.) using saline (2 mL/kg) as the vehicle. For testing, a circulating water bath was heated to 55° C. Thirty to sixty minutes post dosing, the rats were handled for a few seconds to calm them down and then cupped with their back against the testers hand at a slight angle with head facing away from tester. With rat in one hand and a 0.01 second stopwatch in the other hand, the tail was quickly immersed 6-8 cm in water bath or to a distance leaving 2-3 cm of tail out of water. The timer was started simultaneously. When the rat flinched or attempted withdrawal, timer was immediately stopped and the rat's tail was quickly removed from water bath. This response latency (in seconds) was recorded. Process was repeated 3 times with 3-4 minutes between readings for a final average.
For a given example, a percent increase in the average response latency (in seconds) for tail withdrawal relative to a vehicle control was determined % increase=[(tc−tv)/tv]×100%
tc=response time (in seconds) with oral dosing of compounds
tv=response time (in seconds) with oral dosing of vehicle
The % increases in tail withdrawal latency relative to vehicle control are divided into the following categories: […]

T1 sequence (Q8NER1 whole entry): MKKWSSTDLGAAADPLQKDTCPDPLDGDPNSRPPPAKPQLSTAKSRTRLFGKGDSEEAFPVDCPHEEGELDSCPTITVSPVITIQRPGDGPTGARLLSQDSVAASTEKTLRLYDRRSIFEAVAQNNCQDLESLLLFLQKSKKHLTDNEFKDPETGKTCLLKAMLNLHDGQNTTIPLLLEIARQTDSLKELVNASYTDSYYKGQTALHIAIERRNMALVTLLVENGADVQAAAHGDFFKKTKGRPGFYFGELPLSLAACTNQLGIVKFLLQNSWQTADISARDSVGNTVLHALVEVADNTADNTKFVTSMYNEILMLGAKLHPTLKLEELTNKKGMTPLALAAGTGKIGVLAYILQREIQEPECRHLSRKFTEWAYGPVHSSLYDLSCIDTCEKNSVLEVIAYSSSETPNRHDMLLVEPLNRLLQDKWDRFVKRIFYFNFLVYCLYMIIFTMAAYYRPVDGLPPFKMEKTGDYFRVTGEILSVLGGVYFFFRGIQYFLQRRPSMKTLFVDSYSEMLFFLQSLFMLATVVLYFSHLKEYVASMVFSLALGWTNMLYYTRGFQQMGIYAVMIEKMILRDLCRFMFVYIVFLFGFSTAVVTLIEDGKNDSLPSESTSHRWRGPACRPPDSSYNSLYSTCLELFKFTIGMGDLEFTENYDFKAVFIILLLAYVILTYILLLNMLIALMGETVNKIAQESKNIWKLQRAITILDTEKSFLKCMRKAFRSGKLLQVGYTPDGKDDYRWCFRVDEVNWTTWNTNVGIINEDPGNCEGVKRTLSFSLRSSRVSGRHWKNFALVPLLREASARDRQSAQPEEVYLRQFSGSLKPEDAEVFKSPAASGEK

CS(=O)(=O)Nc1ccc(CNC(=O)N[C@@H]2CCc3cc(C(F)(F)F)ccc32)cc1F [Example 5, N-{2-fluoro-4-[({[(1R)-5-(trifluoromethyl)-2,3-dihydro-1H-inden-1-yl]carbamoyl}amino)methyl]phenyl}methanesulfonamide]
remaining activity at 37.5 µM [1]: 88% | IC50 [2]: 325 nM

CC1(C)C[C@@H](NC(=O)NCc2ccc(NS(C)(=O)=O)c(F)c2)c2ccc(F)c(Cl)c2O1 [Example 23, N-{4-[({[(4R)-8-chloro-7-fluoro-2,2-dimethyl-3,4-dihydro-2H-chromen-4-yl]carbamoyl}amino)methyl]-2-fluorophenyl}methanesulfonamide]
remaining activity at 37.5 µM [1]: 24% | IC50 [2]: 358 nM

CS(=O)(=O)Nc1ccc(CNC(=O)N[C@@H]2CCOc3cc(C(F)(F)F)ccc32)cc1F [Example 32, N-{2-fluoro-4-[({[(4R)-7-(trifluoromethyl)-3,4-dihydro-2H-chromen-4-yl]carbamoyl}amino)methyl]phenyl}methanesulfonamide]
remaining activity at 37.5 µM [1]: 88% | IC50 [2]: 913 nM

CC1(C)C[C@@H](NC(=O)NCc2ccc(NS(C)(=O)=O)c(F)c2)c2ccc(Cl)cc2O1 [Example 25, N-{4-[({[(4R)-7-chloro-2,2-dimethyl-3,4-dihydro-2H-chromen-4-yl]carbamoyl}amino)methyl]-2-fluorophenyl}methanesulfonamide]
remaining activity at 37.5 µM [1]: 70% | IC50 [2]: 602 nM

C[C@@]1(C(F)(F)F)C[C@@H](NC(=O)NCc2ccc(NS(C)(=O)=O)c(F)c2)c2ccccc2O1 [Example 35, N-{2-fluoro-4-[({[(2S,4R)-2-methyl-2-(trifluoromethyl)-3,4-dihydro-2H-chromen-4-yl]carbamoyl}amino)methyl]phenyl}methanesulfonamide]
remaining activity at 37.5 µM [1]: 25% | IC50 [2]: 2440 nM

CC1(C)C[C@H](NC(=O)NCc2ccc(NS(C)(=O)=O)c(F)c2)c2cc(F)ccc2O1 [Example 34, N-{2-fluoro-4-[({[(45)-6-fluoro-2,2-dimethyl-3,4-dihydro-2H-chromen-4-yl]carbamoyl}amino)methyl]phenyl}methanesulfonamide]
hTRPV1 H+ (max % remain) [1]: 86% | IC50 [2]: 28700 nM

CN1CC[C@]23c4c5ccc(O)c4O[C@H]2[C@@H](O)C=C[C@H]3[C@H]1C5 [Morphine]
% Increase in Tail Withdrawal Latency (rats): +++ (greater than or equal to 25% increase)

CCC1(CC)C[C@@H](NC(=O)NCc2ccc(NS(C)(=O)=O)c(F)c2)c2cc(F)ccc2O1 [Example 18, N-{4-[({[(4R)-2,2-diethyl-6-fluoro-3,4-dihydro-2H-chromen-4-yl]carbamoyl}amino)methyl]-2-fluorophenyl}methanesulfonamide]
remaining activity at 37.5 µM [1]: 56% | IC50 [2]: 2150 nM

CS(=O)(=O)Nc1ccc(CNC(=O)N[C@@H]2CC(CF)(CF)Oc3c(F)cc(F)cc32)cc1F [Example 16, N-{4-[({[(4R)-6,8-difluoro-2,2-bis(fluoromethyl)-3,4-dihydro-2H-chromen-4-yl]carbamoyl}amino)methyl]-2-fluorophenyl}methanesulfonamide]
remaining activity at 37.5 µM [1]: 79% | IC50 [2]: 22800 nM

CS(=O)(=O)Nc1ccc(CNC(=O)N[C@@H]2CC(CF)(CF)Oc3cc(F)ccc32)cc1F [Example 43, N-{2-fluoro-4-[({[(4R)-7-fluoro-2,2-bis(fluoromethyl)-3,4-dihydro-2H-chromen-4-yl]carbamoyl}amino)methyl]phenyl}methanesulfonamide]
remaining activity at 37.5 µM [1]: 43% | IC50 [2]: 6410 nM

CS(=O)(=O)Nc1ccc(CNC(=O)N[C@@H]2CCOc3ccccc32)cc1F [Example 12, N-[4-({[(4R)-3,4-dihydro-2H-chromen-4-ylcarbamoyl]amino}methyl)-2-fluorophenyl]methanesulfonamide]
remaining activity at 37.5 µM [1]: 87% | IC50 [2]: > 37500 nM

CC1(C)C[C@@H](NC(=O)NCc2ccc(NS(C)(=O)=O)c(F)c2)c2cc(F)ccc2O1 [Example 22, N-{2-fluoro-4-[({[(4R)-6-fluoro-2,2-dimethyl-3,4-dihydro-2H-chromen-4-yl]carbamoyl}amino)methyl]phenyl}methanesulfonamide]
remaining activity at 37.5 µM [1]: 71% | IC50 [2]: 7590 nM

CS(=O)(=O)Nc1ccc(CNC(=O)N[C@@H]2CCc3cc(Cl)ccc32)cc1F [Example 3, N-{4-[({[(1R)-5-chloro-2,3-dihydro-1H-inden-1-yl]carbamoyl}amino)methyl]-2-fluorophenyl}methanesulfonamide]
remaining activity at 37.5 µM [1]: 86% | IC50 [2]: 1810 nM
